# Assay results reported in patent US7273846B2, “Selective melanin-concentrating hormone type-1 receptor agonists” (priority 2002, dated 2007).
# Read-outs that look alike come from different tables or passages of the source. Residues, ends and D or L forms follow the SMILES beside them.
# Assays:
# [1] = target: T1, MCH-1R (Homo sapiens, UniProt Q99705)
# [2] = target: T1, MCH-1R; experiment: Aequorin bioluminescence functional assay, 293AEQ17/MCH-1R cells; type: cell-based; set-up: expressed in transfected cells; settings: for MCH-1R Activation %: human MCH = 100, activation at 10 μM concentration
# Method: (§1) The aequorin bioluminescence assay is a reliable test for identifying G-protein-coupled receptors that couple through the G protein subunit family consisting of Gq and G11. Gq and G11 coupling leads to the activation of phospholipase C, mobilization of intracellular calcium, and activation of protein kinase C.
# Stable cell lines expressing either the MCH-1R or the MCH-2R and the aequorin reporter protein were used. The assay was performed using a Luminoskan RT luminometer (Labsystems Inc., Gaithersburg, Md.) controlled by custom software written for a Macintosh PowerPC 6100.
# (§2) The cells were harvested, washed once in ECB medium, and resuspended to 500,000 cells/mL. 100 μL of cell suspension (corresponding to 5×10^4 cells) was then injected into the test plate containing the hMCH peptides, and the integrated light emission was recorded over 30 seconds, in 0.5-s units. 20 μL of lysis buffer (0.1% final Triton X-100 concentration) was then injected and the integrated light emission recorded over 10 seconds, in 0.5-s units. The “fractional response” values for each well were calculated by taking the ratio of the integrated response to the initial challenge to the total integrated luminescence including the Triton X-100 lysis response.
# [3] = target: MCH-2R (Homo sapiens, UniProt Q969V1); experiment: Aequorin bioluminescence functional assay, 293AEQ17/MCH-2R cells; type: cell-based; set-up: expressed in transfected cells; MCH-2R Activation %: concentration or dose not given beside the values; settings: for MCH-2R Activation %: human MCH = 100; for EC50: aequorin, 293AEQ17/MCH-2R cells
# Sequence of MCH-2R (Q969V1 whole entry): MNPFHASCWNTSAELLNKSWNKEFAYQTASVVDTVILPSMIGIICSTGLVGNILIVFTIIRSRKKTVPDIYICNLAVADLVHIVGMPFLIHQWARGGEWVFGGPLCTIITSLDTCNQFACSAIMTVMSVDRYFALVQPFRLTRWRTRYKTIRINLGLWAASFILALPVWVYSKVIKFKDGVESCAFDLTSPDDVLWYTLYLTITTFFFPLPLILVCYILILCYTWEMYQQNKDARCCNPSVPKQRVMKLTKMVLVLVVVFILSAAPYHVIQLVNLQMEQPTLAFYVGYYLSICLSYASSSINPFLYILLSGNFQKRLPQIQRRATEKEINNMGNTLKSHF
# Description: as §1
# Stable cell lines expressing either the MCH-1R or the MCH-2R and the aequorin reporter protein were used.
# as §2
# [4] = aequorin, 293AEQ17/MCH-1R cells, read-out: MCH-1R EC50
# T1 sequence (Q99705 whole entry): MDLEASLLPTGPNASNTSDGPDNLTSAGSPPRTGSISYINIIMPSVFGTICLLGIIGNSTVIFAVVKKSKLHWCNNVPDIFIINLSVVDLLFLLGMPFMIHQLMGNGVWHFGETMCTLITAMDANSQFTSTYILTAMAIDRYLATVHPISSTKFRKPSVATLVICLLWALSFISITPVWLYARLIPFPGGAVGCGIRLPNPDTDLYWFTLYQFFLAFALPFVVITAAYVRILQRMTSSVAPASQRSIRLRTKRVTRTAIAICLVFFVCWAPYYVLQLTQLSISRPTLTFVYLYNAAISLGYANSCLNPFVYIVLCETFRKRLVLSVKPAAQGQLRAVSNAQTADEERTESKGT
SMILES,Selectivity 2/1 (MCH-2R/MCH-1R IC50 binding ratio) [1],"EC50 [2, 4] [nM]",MCH-1R Activation % [2] [%],MCH-2R Activation % [3] [%],fold more selective as agonist for hMCH-1R than hMCH-2R [2],fold lower agonist activity at hMCH-1R ([2]; relative to Ac-hMCH(6-16)-NH2) [fold],EC50 [3] [nM],fold lower binding affinity for hMCH-1R ([1]; relative to the D-Arg^6 compound),Selectivity 2/1 (MCH-2R/MCH-1R EC50 activity ratio) [2],agonism at hMCH-1R in words [2],agonism at hMCH-2R in words [3],EC50 [2] [nM]
CSCC[C@@H]1NC(=O)[C@@H](NC(=O)[C@H](CCCNC(=N)N)NC(C)=O)CSSC[C@@H](C(N)=O)NC(=O)[C@@H]2CCCN2C(=O)[C@H](CCCNC(=N)N)NC(=O)[C@H](Cc2ccc(O)cc2)NC(=O)[C@H](C(C)C)NC(=O)[C@H](CCCNC(=N)N)NC(=O)[C@H](Cc2ccc3ccccc3c2)NC(=O)[C@H](CC(C)C)NC1=O [SEQ. ID. NO. 21],14,> 10000,7,105,–,–,–,–,–,–,–,–
"CSCC[C@@H]1NC(=O)[C@@H](NC(=O)[C@H](CCCNC(=N)N)NC(=O)[C@H](CC(C)C)NC(=O)[C@H](CCSC)NC(=O)[C@H](CC(=O)O)NC(=O)[C@H](Cc2ccccc2)NC(=O)[C@@H](N)CC(=O)O)CSSC[C@@H](C(=O)N[C@@H](Cc2c[nH]c3ccccc23)C(=O)N[C@@H](CCC(N)=O)C(=O)N[C@H](C(=O)O)C(C)C)NC(=O)[C@@H]2CCCN2C(=O)[C@H](CCCNC(=N)N)NC(=O)[C@H](Cc2ccc(O)cc2)NC(=O)[C@H](C(C)C)NC(=O)[C@H](CCCNC(=N)N)NC(=O)CNC(=O)[C@H](CC(C)C)NC1=O [SEQ. ID. NO. 1, human MCH, reference compound]",–,–,100,100,–,–,–,–,–,–,–,–
CSCC[C@@H]1NC(=O)[C@@H](NC(=O)[C@@H](C)NC(C)=O)CSSC[C@@H](C(N)=O)NC(=O)[C@@H]2CCCN2C(=O)[C@H](CCCNC(=N)N)NC(=O)[C@H](Cc2ccc(O)cc2)NC(=O)[C@H](C(C)C)NC(=O)[C@H](CCCNC(=N)N)NC(=O)CNC(=O)[C@H](CC(C)C)NC1=O [SEQ. ID. NO. 6],3500,160,109,51,–,–,–,–,30,–,–,–
CSCC[C@@H]1NC(=O)[C@@H](NC(=O)[C@@H](Cc2ccccc2)NC(C)=O)CSSC[C@@H](C(N)=O)NC(=O)[C@@H]2CCCN2C(=O)[C@H](CCCNC(=N)N)NC(=O)[C@H](Cc2ccc(O)cc2)NC(=O)[C@H](C(C)C)NC(=O)[C@H](CCCNC(=N)N)NC(=O)CNC(=O)[C@H](CC(C)C)NC1=O [SEQ. ID. NO. 9],1380,66,117,79,–,–,–,–,7,–,–,–
"CCCC[C@@H]1NC(=O)[C@@H](NC(=O)[C@H](N)CCCNC(=N)N)CSSC[C@@H](C(N)=O)NC(=O)[C@@H]2CCCN2C(=O)[C@H](CCCNC(=N)N)NC(=O)[C@H](Cc2ccc(O)cc2)NC(=O)[C@H](C(C)C)NC(=O)[C@H](CCCNC(=N)N)NC(=O)[C@H](CC(N)=O)NC(=O)[C@H](CC(C)C)NC1=O [SEQ. ID. NO. 32] (HELM PEPTIDE1{[dR].C.[Nle].L.N.R.V.Y.R.P.C.[am]}$PEPTIDE1,PEPTIDE1,2:R3-11:R3$$$V2.0)",–,–,–,–,–,–,–,–,–,potent and selective hMCH-1R agonists,–,–
CSCC[C@@H]1NC(=O)[C@@H](NC(=O)[C@H](CCCNC(=N)N)NC(C)=O)CSSC[C@@H](C(N)=O)NC(=O)[C@@H]2CCCN2C(=O)[C@H](CCCNC(=N)N)NC(=O)[C@H](Cc2ccc(O)cc2)NC(=O)[C@H](C(C)C)NC(=O)[C@H](CCCNC(=N)N)NC(=O)[C@H](CCC(=O)O)NC(=O)[C@H](CC(C)C)NC1=O [SEQ. ID. NO. 28],–,–,21,22,–,–,–,–,–,practically inactive,practically inactive,> 10000

# Further lines, with some results ahead:
Selectivity 2/1 (MCH-2R/MCH-1R IC50 binding ratio) [1],"EC50 [2, 4] [nM]",MCH-1R Activation % [2] [%],MCH-2R Activation % [3] [%],fold more selective as agonist for hMCH-1R than hMCH-2R [2],fold lower agonist activity at hMCH-1R ([2]; relative to Ac-hMCH(6-16)-NH2) [fold],EC50 [3] [nM],fold lower binding affinity for hMCH-1R ([1]; relative to the D-Arg^6 compound),Selectivity 2/1 (MCH-2R/MCH-1R EC50 activity ratio) [2],SMILES,agonism at hMCH-1R in words [2],agonism at hMCH-2R in words [3],EC50 [2] [nM]
–,260,109,17,about 50 fold,5,> 10000,–,–,"CSCC[C@@H]1NC(=O)[C@@H](NC(=O)[C@@H](CCCNC(=N)N)NC(C)=O)CSSC[C@@H](C(N)=O)NC(=O)[C@@H]2CCCN2C(=O)[C@H](C)NC(=O)[C@H](Cc2ccc(O)cc2)NC(=O)[C@H](C(C)C)NC(=O)[C@H](CCCNC(=N)N)NC(=O)[C@H](CC(N)=O)NC(=O)[C@H](CC(C)C)NC1=O [SEQ. ID. NO. 33] (HELM PEPTIDE1{[ac].[dR].C.M.L.N.R.V.Y.A.P.C.[am]}$PEPTIDE1,PEPTIDE1,3:R3-12:R3$$$V2.0)",–,–,–
43,920,91,68,–,–,310,about 30 fold,0.3,CSCC[C@@H]1NC(=O)[C@@H](NC(=O)[C@@H](CCCNC(N)=O)NC(C)=O)CSSC[C@@H](C(N)=O)NC(=O)[C@@H]2CCCN2C(=O)[C@H](CCCNC(=N)N)NC(=O)[C@H](Cc2ccc(O)cc2)NC(=O)[C@H](C(C)C)NC(=O)[C@H](CCCNC(=N)N)NC(=O)CNC(=O)[C@H](CC(C)C)NC1=O [SEQ. ID. NO. 14],lower than those of the L-Arg^6 compound,lower than those of the L-Arg^6 compound,–
42,920,91,68,–,–,–,–,0.3,CSCC[C@@H]1NC(=O)[C@@H](NC(=O)[C@H](CCCNC(=N)N)NC(C)=O)CSSC[C@@H](C(N)=O)NC(=O)[C@@H]2CCCN2C(=O)[C@H](CCCNC(=N)N)NC(=O)[C@H](Cc2ccc(O)cc2)NC(=O)[C@H](C(C)C)NC(=O)[C@H](CCCNC(=N)N)NC(=O)[C@H](CCCNC(N)=O)NC(=O)[C@H](CC(C)C)NC1=O [SEQ. ID. NO. 27],–,–,–
230,–,74,11,about 150 fold,–,> 10000,–,–,"CSCC[C@@H]1NC(=O)[C@@H](NC(=O)[C@@H](CCCNC(=N)N)NC(C)=O)CSSC[C@@H](C(N)=O)NC(=O)[C@@H]2CCCN2C(=O)[C@H](CCCNC(=N)N)NC(=O)[C@H](Cc2ccc(O)cc2)NC(=O)[C@H](C(C)C)NC(=O)[C@H](CCCNC(=N)N)NC(=O)[C@H](CCC(N)=O)NC(=O)[C@H](CC(C)C)NC1=O [SEQ. ID. NO. 30] (HELM PEPTIDE1{[ac].[dR].C.M.L.Q.R.V.Y.R.P.C.[am]}$PEPTIDE1,PEPTIDE1,3:R3-12:R3$$$V2.0)",activated hMCH-1R almost as efficiently as Ac-hMCH(6-16)NH2,–,–
1900,–,123,74,–,–,–,–,1.8,CSCC[C@@H]1NC(=O)[C@@H](NC(=O)[C@H](CCCNC(=N)N)NC(C)=O)CSSC[C@@H](C(N)=O)NC(=O)[C@@H]2CCCN2C(=O)[C@H](CCCNC(=N)N)NC(=O)[C@H](Cc2ccc(O)cc2)NC(=O)[C@H](C(C)C)NC(=O)[C@H](CCCNC(=N)N)NC(=O)[C@H](CC(C)C)NC(=O)[C@H](CC(C)C)NC1=O [SEQ. ID. NO. 17],–,–,–
0.7,> 10000,7,38,–,–,–,–,–,"CSCC[C@@H]1NC(=O)[C@@H](NC(=O)[C@H](CCCNC(=N)N)NC(C)=O)CSSC[C@@H](C(N)=O)NC(=O)[C@@H]2CCCN2C(=O)[C@H](CCCNC(=N)N)NC(=O)[C@H](Cc2ccc(O)cc2)NC(=O)[C@H](C(C)C)NC(=O)[C@H](CCCNC(=N)N)NC(=O)[C@H](CCCNC(=N)N)NC(=O)[C@H](CC(C)C)NC1=O [SEQ. ID. NO. 23] (HELM PEPTIDE1{[ac].R.C.M.L.R.R.V.Y.R.P.C.[am]}$PEPTIDE1,PEPTIDE1,3:R3-12:R3$$$V2.0)",–,–,–
–,–,99,–,–,–,–,–,–,"CSCC[C@@H]1NC(=O)[C@@H](NC(=O)[C@H](CCCNC(=N)N)NC(C)=O)CSSC[C@@H](C(N)=O)NC(=O)[C@@H]2CCCN2C(=O)[C@H](CCCNC(=N)N)NC(=O)[C@H](Cc2ccc(O)cc2)NC(=O)[C@H](C(C)C)NC(=O)[C@H](CCCNC(=N)N)NC(=O)CNC(=O)[C@H](CC(C)C)NC1=O [SEQ. ID. NO. 2, Ac-hMCH(6-16)-NH2, reference compound]",–,–,–
16,51,121,102,–,–,–,–,0.29,"CSCC[C@@H]1NC(=O)[C@@H](NC(=O)[C@H](CCCNC(=N)N)NC(C)=O)CSSC[C@@H](C(N)=O)NC(=O)[C@@H]2CCCN2C(=O)[C@H](CCCNC(=N)N)NC(=O)[C@H](Cc2ccc(O)cc2)NC(=O)[C@H](C(C)C)NC(=O)[C@H](CCCNC(=N)N)NC(=O)[C@H](C)NC(=O)[C@H](CC(C)C)NC1=O [SEQ. ID. NO. 16] (HELM PEPTIDE1{[ac].R.C.M.L.A.R.V.Y.R.P.C.[am]}$PEPTIDE1,PEPTIDE1,3:R3-12:R3$$$V2.0)",–,–,–
